22 compounds from patent US6403581B1, “Method of inhibition of farnesyl-protein transferase using substituted benz (cd) indol-2-imine and-amine derivatives” (American Cyanamid Company, priority 2000, dated 2002) can be followed below.

Counter-ions that a name gives are not always drawn. A value given as a limit tells only on which side of the number the result lay.

Series [1] addresses T1, farnesyl-protein transferase (FPTase) (Homo sapiens, UniProt P49354+P49356). The series can be described thus: in vitro FPTase inhibition, H-Ras as substrate for farnesylation. To be noted: H-Ras used as substrate for farnesylation. The class given is biochemical. How it is done: (§1) Enzyme test procedure: The FPTase inhibition in vitro assay was performed according to the method as described by James, G. L., Brown, M. S., and Goldstein, J. L., Methods in Enzymology, 1995, 255, 38-46; and Garcia, M. A., et al., J. Biol. Chem., 1993, 268, 18415-18420.
(§2) Materials—Purified FPTase (Moomaw, J. F. and Casey, P. J., J. Biol. Chem., 1992, 267, 17438-17443), purified His6-Ras, inhibitor compounds at 10 mg/ml or 10 mM in 100% DMSO, ^3H-FPP (50,000 dpm/pmol) Amersham, TCA/SDS (6%/2%), TCA (6%), Glass fiber filters ([…]), vacuum manifold or 96 well filtration plates.
(§3) Methods—1. Dilute FPTase inhibitors from stock solutions to 2.5× in 2.5% DMSO, 10 mM DTT, 0.5% octyl-B-glucoside. 2. Solution #1 is added to FPTase reaction in a volume of […]. 3. Standard reaction mix, […], contains 50 mM Tris (7.5),[…], 3 mM MgCl2, 20 mM KCl, 5 mM DTT, 0.2% octyl-B-glucoside, 1% DMSO, […], 10 ng FPTase, and various concentrations of FPTase inhibitors. 4. Incubate for 30-90 min at 25° C. 5. Stop reactions with TCA/SDS (6%/2%), hold at 4° C. for 45-60 min. 6. Filter by manifold or 96 well plate, wash filter 3-5× with TCA (6%). 7. Add scintillant to filters, measure ^3H-FPP incorporation into Ras protein.
(§4) Analysis of Results—Percent inhibition by test compounds is determined by the following:
(§5) (cpm from precipitated Ras with test compounds)−(background cpm)×100=% inhibition.
(§6) (cpm from precipitated Ras without test compounds)−(background cpm)

Series [2] addresses T1, farnesyl-protein transferase (FPTase). Put plainly: in vitro FPTase inhibition, K-Ras as substrate for farnesylation. The class given is biochemical. The conditions noted are these: K-Ras used as substrate for farnesylation. How it is done: as §1, §2, §3, §4, §5, §6

By IC50 is commonly meant the point on the concentration scale where inhibition reaches its midpoint. A lower IC50 goes with inhibition by little substance. As to `CCCCCCCCN(CCCn1ccnc1)C1=Nc2cccc3cccc1c23` [Example 1, N-[3-(1H-Imidazol-1-yl)-propyl]-N-octyl-benz[cd]indol-2-amine, Fumarate (1:2)], the values for the IC50 in series [1] and in series [2] were 1200 nM and 8000 nM, respectively. As for `Ic1ccc2c3c(cccc13)C(NCCCCn1ccnc1)=N2` [Example 2, N-[4-(1H-Imidazol-1-yl)-butyl]-6-iodo-benz[cd]indol-2-amine], it took 6700 nM to reach half-maximal inhibition in series [1] (IC50). Take `CN1C(=NCCCn2ccnc2)c2cccc3c(CO)ccc1c23` [Example 3, 1,2-Dihydro-2-[[3-(1H-imidazol-1-yl)propyl]imino]-1-methyl-benz[cd]indole-6-methanol, Fumarate (1:1)]: the IC50 in series [1] is 2500 nM; in series [2] it was greater than 10000 nM. For the compound `c1ccc(CN2C(=NCCCCn3ccnc3)c3cccc4cccc2c34)cc1` [Example 4, N-[1-(Phenylmethyl)benz[cd]indol-2(1H)-ylidene]-1H-imidazole-1-butanamine, Fumarate (1:2)], the values for the IC50 in series [1] and in series [2] were 2800 nM and greater than 10000 nM, respectively.

With `N#CCCCCN1C(=NCCCn2ccnc2)c2cccc3cccc1c23` [Example 5, 2-[[3-(1H-Imidazol-1-yl)propyl]imino]-benz[cd]indole-1(2H)-pentanenitrile], the half-maximal inhibitory concentration (IC50) in series [1] was 320 nM; in series [2] it was 4800 nM. Taken in the same sequence, the figures for `c1cc2c3c(cccc3c1)N(CCCN1C(=NCCCn3ccnc3)c3cccc4cccc1c34)C2=NCCCn1ccnc1` [Example 6, N,N′-[1,3-Propanediylbis(benz[cd]indol-1(2H)-yl-2-ylidene)]bis-1H-imidazole-1-propanamine] were 2250 nM and greater than 10000 nM. Taken in the same sequence, the figures for `CCCCCCN1C(=NCCCn2ccnc2)c2cccc3cccc1c23` [Example 7, N-(1-Hexylbenz[cd]indol-2(1H)-ylidene)-1H-imidazole-1-propanamine, Fumarate (1:2)] were 1800 nM and greater than 10000 nM. As for `c1cncc(CN2C(=NCCCn3ccnc3)c3cccc4cccc2c34)c1` [Example 9, N-[1-(3-Pyridinylmethyl)benz[cd]indol-2(1H)-ylidene]-1H-imidazole-1-propanamine], the IC50 in series [1] was 2000 nM; in series [2], greater than 10000 nM. Consider `c1ccc(CN2C(=NCCCn3ccnc3)c3cccc4cccc2c34)cc1` [Example 10, N-[1-(Phenylmethyl)benz[cd]indol-2(1H)-ylidene]-1H-imidazole-1-propanamine, Fumarate (1:2)], for which the IC50 in series [1] turned out to be 650 nM. On to `c1ccc(CCCN2C(=NCCCn3ccnc3)c3cccc4cccc2c34)cc1` [Example 11, N-[1-(3-Phenylpropyl)benz[cd]indol-2(1H)-ylidene]-1H-imidazole-1-propanamine, Fumarate (1:2)], for which the results for the IC50 in series [1] and in series [2] were 600 nM and 9500 nM, respectively. `c1ccc(OCCCN2C(=NCCCn3ccnc3)c3cccc4cccc2c34)cc1` [Example 12, N-[1-(3-Phenoxypropyl)benz[cd]indol-2-(1H)-ylidene]-1H-imidazole-1-propanamine, Dihydrochloride]: the midpoint of inhibition in series [1], the IC50, lay at 1500 nM. In other words, the single-digit micromolar range.

As to `COc1cccc(CN2C(=NCCCn3ccnc3)c3cccc4cccc2c34)c1` [Example 13, N-[1-[(3-Methoxyphenyl)methyl]benz[cd]indol-2(1H)-ylidene]-1H-imidazole-1-propanamine], the IC50 in series [1] is 400 nM; in series [2] it was greater than 10000 nM.

As to `FC(F)(F)c1cccc(CN2C(=NCCCn3ccnc3)c3cccc4cccc2c34)c1` [Example 14, N-[1-[[3-(Trifluoromethyl)phenyl]methyl]benz[cd]indol-2(1H)-ylidene]-1H-imidazole-1-propanamine], the 50% inhibitory concentration (IC50) is 200 nM in series [1] and 8500 nM in series [2].

With `Clc1ccc(CN2C(=NCCCn3ccnc3)c3cccc4cccc2c34)cc1` [Example 15, N-[1-[(4-Chlorophenyl)methyl]benz[cd]indol-2(1H)-ylidene]-1H-imidazole-1-propanamine], the IC50 in series [1] was found to be 180 nM. As to `c1ccc(N2C(=NCCCn3ccnc3)c3cccc4cccc2c34)cc1` [Example 16, N-(1-Phenylbenz[cd]indol-2(1H)-ylidene)-1H-imidazole-1-propanamine], the IC50 is 2500 nM in series [1] and greater than 10000 nM in series [2]. In the same order, the values of `c1cc2c3c(cccc3c1)C(N1CCC(Cn3ccnc3)CC1)=N2` [Example 17, 2-[4-(1H-Imidazol-1-ylmethyl)-1-piperidinyl]-benz[cd]indole, Monohydriodide] are 2000 nM and greater than 10000 nM. Taken in the same sequence, the figures for `Clc1ccc2c3c(cccc13)C(=NCCCn1ccnc1)N2Cc1ccccc1` [Example 18, N-[6-Chloro-1-(phenyl-methyl)benz[cd]indol-2(1H)-ylidene]-1H-imidazole-1-propanamine] were 800 nM and greater than 10000 nM. `Clc1ccc2c3c(cccc13)C(=NCCc1cccnc1)N2Cc1ccccc1` [Example 19, N-[6-Chloro-1-(phenylmethyl)benz[cd]indol-2(1H)-ylidene]-3-pyridinethanamine]: the IC50 was 100 nM in series [1] and greater than 10000 nM in series [2].

Compound `Clc1ccc(CN2C(=NCCCn3ccnc3)c3cccc4c(I)ccc2c34)cc1` [Example 20, N-(1-(4-Chlorobenzyl)-6-iodobenzo[cd]indol-2-(1H)-ylidene)-3-(1H-imidazol-1-yl)-1-propanamine] registered an IC50 in series [1] of 900 nM. This counts as sub-micromolar. As usually defined, the melting point is the temperature, or range, at which the solid turns liquid. In turn, `Ic1ccc2c3c(cccc13)C(=NCCCn1ccnc1)N2` [Example 21, 3-(1H-Imidazol-1-yl)-N-(6-iodobenzo[cd]indol-2(1H)-ylidene)-1-propanamine] gave a melting point of 185 to 188 °C.

As to `Ic1ccc2c3c(cccc13)C(=NCc1ccccc1)N2` [Example 22, N-Benzyl-N-(6-iodobenzo[cd]indol-2(1H)-ylidene)amine], the melting point lay within 160 to 163 °C. Regarding “N-(1-Hexylbenz[cd]indol-2(1H)-ylidene)-3-pyridinebutanamine, Fumarate (2:3) [Example 8]”, the results for the concentration for half-maximal inhibition (IC50) in series [1] and in series [2] were 2400 nM and greater than 10000 nM, respectively.
